Reference: US7230132B2, “Aryl N-cyanoguanidines and methods related thereto” (Migenix Corp., priority 2001, dated 2007)

How the values were obtained:
Assay type in all cases: cell-based
TC28 cells [1] = assay: GAG release from TC28 chondrocytes in polyHEME plates (DMB dye binding assay); settings: for % Decrease in GAG Release, IL-1b / % Decrease in GAG Release, NOC-12 / % Decrease in GAG Release, SIN-1: TC28 cells in polyHEME plates, 1 μM compound; for % Decrease in GAG Release, IL-1b: trigger IL-1 10 ng/ml; for % Decrease in GAG Release, NOC-12: trigger NOC-12 25 μM; for % Decrease in GAG Release, SIN-1: trigger SIN-1 10 μM; for EC50: approximate, prevention of GAG release, polyHEME plates, 1 h pretreatment, 72 h
Method: Immortalized TC28 (a.k.a. “[…]”) juvenile rib chondrocytes were provided by Dr. Mary Goldring (Harvard Medical School, Boston, Mass.). The TC28 cells were maintained in monolayer culture in DMEM/Ham's F12 (1:1) and supplemented with 10% FCS, 1% L-glutamine, 100 units/ml Penicillin and […] Streptomycin (Omega Scientific, Tarzana, Ca) and cultured at 37° C. with 5% CO2. Additionally, to further study chondrocytic cells in a more physiologic nonadherent state, in some experiments, TC28 cells were transferred to 6 well plates that had been previously coated for 18 hours at 22° C. with 10% (v/v) in 95% ethanol solution of the cell adhesion inhibitor poly 2-hydroxyethyl methacrylate (polyHEME), followed by two washes in PBS. Complete DMEM/Ham's F12 medium was then added to the wells and the cells studied for up to 72 hours in culture (Folkman J. and Moscona A: Role of cell shape in growth control, Nature 273:345-349, 1978; Reginato A, Iozzo R, Jimenez S: Formation of Nodular Structures Resembling Mature Articular Cartilage in Long-Term Primary Cultures of Human Fetal Epiphyseal Chondrocytes on a Hydrogel Substrate, Arthritis Rheum 37: 1338-1349, 1994). Type II collagen and aggrecan expression were confirmed using RT-PCR, which verified maintenance of chondrocyte phenotype. The chondrocyte protective effects of representative compounds were screened in vitro. The agonists included a donor of nitric oxide (NOC-12), a donor of peroxynitrite (SIN-1), and human recombinant IL-1beta. […] Cytotoxicity was studied using standard LDH release assay, and chondrocyte intracellular ATP was measured by standard luciferase assay. The enhanced release from chondrocytes of glycosaminoglycans (GAG) is a central feature of osteoarthritic chondrocytes, and is known to be stimulated potently by IL-1, which, like NO and peroxynitrite is a major pathogenic factor in osteoarthritis. […] The digestion of the interfering proteins accomplished in this manner allowed the GAG release to be more readily detectable, and the GAG release was quantified by the standard dimethylene blue (DMB) dye binding colorimetric assay. In brief, the cell extract digested from above was combined with 46 μM DMB, 40 mM glycine and 40 mM NaCl (pH 3.0) and immediately read at 525 nm and compared again at a standard curve generated with samples of 1-50 μg/ml chondroitin sulfate (Farndale R, Buttle D, Barrett A: Improved quantitation and discrimination of sulphated glycosaminoglycans by us of dimethylmethylene blue, Biochimica et Biophysica Acta 883: 173-177, 1986; SztrolovicsR, White R, Poole R, Mort J, Roughley P: Resistance of small leucine-rich repeat proteoglycans to proteolytic degradation during interleukin-1 stimulated cartilage catabolism, Biochem J. 339: 571-577, 1999). Collagen production was measured by following ^3H proline incorporation as described in Johnson et al., Arthritis Rheum. 43:11560-70, 2000. […] In these experiments, TC28 cells in polyHEME coated plates were pre-treated for 1 hr followed by exposure to trigger for 72 hrs in the present of Compound (1).

TC28 cells [2] = assay: Collagen synthesis (3H proline incorporation); settings: approximate, prevention of inhibition of collagen synthesis, polyHEME plates, 1 h pretreatment, 72 h
Method: Collagen production was measured by following ^3H proline incorporation as described in Johnson et al., Arthritis Rheum. 43:11560–70, 2000. The results are presented in Table 4, which provides the approximate EC50 values (μM) for prevention of SIN-1, NOC-12 and IL-1 mediated GAG release (via Example 3) and inhibition of collagen synthesis (via Johnson et al.) in chondrocytes by Compound (1). In these experiments, TC28 cells in polyHEME coated plates were pre-treated for 1 hr followed by exposure to trigger for 72 hrs in the present of Compound (1).

TC28 cells [3] = assay: Cell viability assay (LDH release, CytoTox 96); settings: approximate, prevention of cell death, 1 h pretreatment, 24 h exposure
Method: 1×10^5 TC28 cells (DMEM/F12 media with 10% FCS, 1% glutamine, 1% P/S) were plated each well in a 96 well plate and allowed to adhere overnight. The cells were washed once with PBS and media changed to contain only 1% FCS. Compound (1) at various concentrations was added to the cells for a pretreatment of 1 hr. The media was removed and fresh compound+/− the toxic stimuli were added. The cells were then incubated for 24 hrs at 37° C. Following the incubation the media was collected and used for analysis in the CytTox 96 Nonradioactive Cytotoxicity Assay (Promega, Madison, Wis.). Briefly the LDH release from the dead cells was quantified in a 30 min enzymatic reaction that results in the conversion of a tetrazolium […] to a red formazan product. The results were then expressed as the percent of cells dead relative to the release of LDH by the control cells.
(§1) The results of the above Cell Viability and ATP Assays are presented in Table 3, which provides the approximate EC50 values (μM) for prevention of SIN-1 and NOC-12 mediated cell death and ATP depletion by Compound (1). In these assays, TC28 cells were pre-treated for one hour followed by 24-hour exposure to trigger in the presence of Compound (1).

bovine cartilage slices [4] = assay: Bovine cartilage organ culture, IL-1-mediated GAG release; settings: approximate, IL-1 10 ng/ml, 6 h pretreatment, 24 h, read-out: EC50 GAG Release, IL-1 Trigger
Method: (§2) Mature bovine knees were obtained and cartilage from the femoral condyles and patellar groove was removed in full thickness slices. (1–3 mm). Circular cores (6–7 mm in diameter) were punched out of the tissue. The cores were washed twice with media (1% FCS, 1% P/S, 1% glutamine containing DMEM high glucose) and then placed in 96 wells plates. The slices were incubated in media (as above) at 37° C. for 48 hrs to allow for recovery from the isolation process. After the recovery period, the media was removed and fresh media with Compound (1) was added to the slices for a pretreatment period of 6 hrs. Then the media was removed and fresh Compound (1)+/− IL-1 (at 10 ng/ml) was added and incubated at 37° C. for 24 hrs. The conditioned media was collected and the GAG and NO release were analyzed. Finally the slices were weighed to correct for slight variations in size or thickness. The results of this experiment are presented in Table 5, which provides the approximate EC50 values (μM) for prevention of IL-1-mediated GAG and NO release in bovine cartilage slices by Compound (1).

TC28 cells [5] = assay: ATP assay (luciferase); settings: approximate, prevention of ATP depletion, 1 h pretreatment, 24 h exposure
Method: 5×10^5 TC28 cells were plated in a 60 mm dish and allowed to adhere overnight. The cells were then washed with PBS and media was changed to 1% FCS containing media. Compound (1) was added for 1 hr pretreatment of the cells at 37° C. The media was removed and fresh compound+/− the toxic stimuli were added and the cells incubated for 24 hrs at 37° C. The cells were gently scraped into PBS and washed and then the pellets were snap frozen in dry ice. The cells were then extracted in 0.4 N perchloric acid and incubated on ice for 15 min. The cells were centrifuged at 14,000 rpm for 15 min and the supernatant removed. 24% (by volume) of 2.2 M KHCO3 was added to neutralize the solution and the precipitate was pelleted by centrifugation. This supernatant was mixed with the ATP assay mix from the Sigma ATP Luciferase kit and the reaction was counted for 15 sec (with an initial 5 sec delay) in triplicate. Counts were corrected for total DNA in the cell pellet (see Table 3).
as §1

TC28 cells [6] = assay: Oxygen consumption / mitochondrial respiration in TC28 monolayer culture; settings: 500 μM SIN-1 for 4 hr +/- 10 μM compound, FIG. 1
Method: In this experiment, TC28 cells were treated with 500 μM SIN-1 for 4 hr+/−10 μM Compound (1): State 3/4—basal respiration rate with no substrate addition; State 4—respiration rate in present of […] oligomycin; State 3U—maximal state 3 uncoupled respiration rate due to addition of the uncoupler CCCP.

bovine cartilage slices [7] = assay: Bovine cartilage organ culture, IL-1-mediated NO release; settings: approximate, IL-1 10 ng/ml, 6 h pretreatment, 24 h, read-out: EC50 NO Release, IL-1 Trigger
Method: as §2

SMILES | % Decrease in GAG Release, IL-1b (TC28 cells [1]) [%] | % Decrease in GAG Release, NOC-12 (TC28 cells [1]) [%] | % Decrease in GAG Release, SIN-1 (TC28 cells [1]) [%] | further results
COc1ccc(NC(N)=NC#N)cc1Cl [(2)] | 40.9 | 50.1 | 23.6 | 
N#CN=C(N)Nc1ccc(N2CCOCC2)cc1 [(3)] | 29.1 | 28.0 | 21.9 | 
COc1cc(NC(N)=NC#N)cc(OC)c1OC [(4)] | 1.5 | 17.2 | 11.3 | 
N#CN=C(N)Nc1cccc(C(F)(F)F)c1 [(5)] | 30.7 | 14.2 | 35.0 | 
Cc1ccc(NC(N)=NC#N)c(C)c1 [(6)] | 2.4 | 11.0 | 1.6 | 
Cc1cc(C)cc(NC(N)=NC#N)c1 [(7)] | 56.6 | 46.2 | 42.3 | 
Cc1cc(Cl)ccc1NC(N)=NC#N [(8)] | 43.8 | 32.3 | 55.2 | 
Cc1cc(O)ccc1NC(N)=NC#N [Compound (1)] | 36.8 | 27.4 | 47.7 | EC50 (TC28 cells [2]; IL-1 challenge 10 ng/ml, read-out: EC50 Collagen, trigger IL-1): ~1000 nM; EC50 (TC28 cells [2]; NOC-12 challenge 25 μM, read-out: EC50 Collagen, trigger Noc12): ~1000 nM; EC50 (TC28 cells [2]; SIN-1 challenge 10 μM, read-out: EC50 Collagen, trigger Sin-1): ~1000 nM; EC50 (TC28 cells [3]; NOC-12 challenge 250 μM, read-out: EC50 Cell Viability, trigger Noc12): ~10 nM; EC50 (TC28 cells [3]; SIN-1 challenge 100 μM, read-out: EC50 Cell Viability, trigger Sin-1): ~10 nM; EC50 (bovine cartilage slices [4]): ~10000 nM; EC50 (TC28 cells [5]; NOC-12 challenge 250 μM, read-out: EC50 ATP Depletion, trigger Noc12): ~100 nM; EC50 (TC28 cells [5]; SIN-1 challenge 100 μM, read-out: EC50 ATP Depletion, trigger Sin-1): ~100 nM; SIN-1-mediated inhibition of mitochondrial respiration (TC28 cells [6]): blocked SIN-1-mediated inhibition of mitochondrial respiration; EC50 (TC28 cells [1]; IL-1 challenge 10 ng/ml, read-out: EC50 GAG Release, trigger IL-1): ~100 nM; EC50 (TC28 cells [1]; NOC-12 challenge 25 μM, read-out: EC50 GAG Release, trigger Noc12): ~100 nM; EC50 (TC28 cells [1]; SIN-1 challenge 10 μM, read-out: EC50 GAG Release, trigger Sin-1): ~100 nM; EC50 (bovine cartilage slices [7]): ~10000 nM
